Test results: paper PMC12165925 (Natural Products and Bioprospecting, 2025)

Legend:
ACE2 = ACE2 (Homo sapiens, UniProt Q9BYF1); test: Surface plasmon resonance, immobilized ACE2; type: binding; settings: for kon / koff: SPR; for kon: read-out: binding rate constant (ka), ACE2; for koff: read-out: dissociation rate constant (kd), ACE2
Description: Binding affinities between compounds and ACE2 or S-RBD were evaluated using a Biacore T200 instrument (Cytiva, UK). […] A mixture of 50 mM NHS and 200 mM EDC was injected to activate the surface, after which 20 µg/mL ACE2 was immobilized to achieve 15,020 RU, and 30 µg/mL S-RBD reached 7193 RU. Surface blocking was performed using 1 M ethanolamine at pH 8.5. Delphinidin with 5% DMSO was injected into the flow system and analyzed for 120 s, followed by 300 s of dissociation. Glycine–HCl at pH 3.0 was used for surface regeneration between analyte injections. Data were processed using double reference subtraction and solvent corrections. Binding affinities were determined using a Langmuir 1:1 binding model in Biacore Evaluation software (Cytiva, UK).

BEL-7402 cells = test: Maximum non-toxic concentration in BEL-7402 cells (CPE monitoring)
hACE2-HEK293T cells = test: Cytotoxicity, CCK-8, hACE2-HEK293T cells
[1] = Cytotoxicity, CCK-8, hACE2-HEK293T cells; settings: human
SARS-CoV-2 3CL^pro [2] = molecular target: T1, SARS-CoV-2 3CL^pro (Severe acute respiratory syndrome coronavirus 2, UniProt P0DTD1)
[3] = set-up: method as in PMID 25980422; settings: cited from earlier work
HCoV-229E = test: Anti HCoV-229E activity in BEL-7402 cells (CPE, RT-qPCR); type: cell-based
S-RBD = S-RBD (Severe acute respiratory syndrome coronavirus 2, UniProt P0DTC2); test: Surface plasmon resonance, immobilized S-RBD; type: binding, SARS-CoV-2; settings: SPR; for Kd: Langmuir 1:1 binding model; for kon: read-out: ka, S-RBD
SARS-CoV-2-S pseudovirus = test: microbe, parasite or virus in culture; type: cell-based; settings: for inhibition of attachment of SARS-CoV-2-S pseudovirus to ACE2-expressing HEK293T cells: 5 µM and 50 µM, p < 0.001; for IC50: Pseudovirus
Vero-E6 cells = test: Cytotoxicity, CCK-8, Vero-E6 cells; settings: at 200 µM
[4] = Cytotoxicity, CCK-8, Vero-E6 cells; settings: African green monkey
chymotrypsin C (CTRC) = molecular target: T2, chymotrypsin C (CTRC) (Homo sapiens, UniProt Q99895); test: Host protease inhibitory activity assay, CTRC; settings: 50 µM, p < 0.001
T2 sequence (Q99895 30-268): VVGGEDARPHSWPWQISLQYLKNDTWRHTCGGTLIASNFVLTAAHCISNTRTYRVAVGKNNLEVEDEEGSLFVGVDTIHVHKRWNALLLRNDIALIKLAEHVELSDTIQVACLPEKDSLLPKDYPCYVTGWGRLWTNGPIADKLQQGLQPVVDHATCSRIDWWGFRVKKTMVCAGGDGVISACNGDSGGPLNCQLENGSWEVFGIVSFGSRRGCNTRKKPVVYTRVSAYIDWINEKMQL
Description: (§1) Similarly, CTSL (Sino Biological, Beijing, China) was diluted, activated, and incubated with the test compounds before Z-Phe-Arg-AMC was added, with fluorescence measurements taken under the same conditions. For CTRC (Novoprotein, Suzhou, China), a 5 µg/mL solution was incubated with the test compounds in Tris buffer, then activated with trypsin (Sigma, Saint Louis, USA). The reaction was initiated using 100 µM Succinyl-Ala-Ala-Pro-Phe-p-nitroanilide (NJPeptide Biotech, Nanjing, China), and absorbance was measured at 405 nm.

cathepsin L (CTSL) = cathepsin L (CTSL) (Homo sapiens, UniProt P07711); test: Host protease inhibitory activity assay, CTSL; settings: 50 µM, p < 0.001
cathepsin L (CTSL), sequence (P07711 114-333): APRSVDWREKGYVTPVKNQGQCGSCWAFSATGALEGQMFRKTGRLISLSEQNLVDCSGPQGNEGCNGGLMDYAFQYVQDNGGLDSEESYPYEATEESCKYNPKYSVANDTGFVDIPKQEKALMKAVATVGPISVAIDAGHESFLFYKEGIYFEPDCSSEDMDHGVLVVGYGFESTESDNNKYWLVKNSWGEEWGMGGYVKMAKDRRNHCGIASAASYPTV
Description: as §1

SARS-CoV-2 3CL^pro [5] = molecular target: T1, SARS-CoV-2 3CL^pro; test: biochemical
SARS-CoV-2 3CL^pro [6] = molecular target: T1, SARS-CoV-2 3CL^pro; test: biochemical; type: binding
[7] = set-up: method as in PMID 31557009; settings: cited from earlier work
cathepsin B (CTSB) = cathepsin B (CTSB) (Homo sapiens, UniProt P07858); test: Host protease inhibitory activity assay, CTSB; settings: 50 µM
Description: The activities of cathepsin B (CTSB), cathepsin L (CTSL), and chymotrypsin C (CTRC) were assessed following established methods [35, 36]. […] After further dilution to 500 pM, CTSB was incubated with the test compounds for 30 min, followed by the addition of 5 µM Z-Phe-Arg-AMC (NJPeptide Biotech, Nanjing, China) to initiate the reaction. Fluorescence was recorded using a Cytation 5 reader at excitation/emission wavelengths of 360/460 nm.

ACE2, sequence (Q9BYF1 18-805): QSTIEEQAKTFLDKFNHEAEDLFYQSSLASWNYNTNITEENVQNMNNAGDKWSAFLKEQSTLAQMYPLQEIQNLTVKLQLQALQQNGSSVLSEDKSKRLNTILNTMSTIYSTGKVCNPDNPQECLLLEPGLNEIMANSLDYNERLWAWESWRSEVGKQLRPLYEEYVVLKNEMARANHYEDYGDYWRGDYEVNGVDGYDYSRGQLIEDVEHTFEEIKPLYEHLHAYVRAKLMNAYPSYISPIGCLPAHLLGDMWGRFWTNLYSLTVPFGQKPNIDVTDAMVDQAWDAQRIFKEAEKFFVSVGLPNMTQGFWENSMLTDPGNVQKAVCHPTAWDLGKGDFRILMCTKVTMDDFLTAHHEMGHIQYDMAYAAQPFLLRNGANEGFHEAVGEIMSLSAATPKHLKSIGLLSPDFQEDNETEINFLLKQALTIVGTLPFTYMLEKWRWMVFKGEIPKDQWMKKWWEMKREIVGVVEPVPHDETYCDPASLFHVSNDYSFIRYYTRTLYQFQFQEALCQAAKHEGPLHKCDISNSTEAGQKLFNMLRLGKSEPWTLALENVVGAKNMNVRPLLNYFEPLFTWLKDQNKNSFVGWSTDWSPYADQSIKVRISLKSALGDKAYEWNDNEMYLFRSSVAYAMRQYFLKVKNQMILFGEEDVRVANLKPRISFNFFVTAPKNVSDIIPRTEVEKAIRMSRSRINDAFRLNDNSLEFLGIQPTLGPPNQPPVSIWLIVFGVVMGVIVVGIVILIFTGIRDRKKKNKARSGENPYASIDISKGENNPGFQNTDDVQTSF

## C[C@@H]1O[C@@H](O[C@H]2[C@H](OC(=O)[C@]34CCC(C)(C)C[C@H]3C3=CC[C@@H]5[C@@]6(C)C[C@H](O)[C@H](O[C@@H]7O[C@H](CO)[C@@H](O)[C@H](O)[C@H]7O)C(CO)(CO)[C@@H]6CC[C@@]5(C)[C@]3(C)C[C@H]4O)OC[C@H](O)[C@@H]2O)[C@H](O)[C@H](O)[C@H]1O[C@@H]1OC[C@@H](O)[C@H](O)[C@H]1O [DPD, Deapio platycodin D]
ACE2
  Kd: 358 µM
  kon: 54.6 M⁻¹ s⁻¹
  koff: 0.0196 s⁻¹
BEL-7402 cells
  maximum non-toxic concentration (MNTC): 12.50 µM
hACE2-HEK293T cells; 5 µM
  cytotoxicity against hACE2-HEK293T cells: no cytotoxicity
hACE2-HEK293T cells; 50 µM, p < 0.001
  cytotoxicity against hACE2-HEK293T cells: had cytotoxicity
[1]
  CC50: 35.5 ± 1.77 µM
SARS-CoV-2 3CL^pro [2]
  inhibition of SARS-CoV-2 3CL^pro: lack of inhibition
[3]; oral administration ref 60
  Tmax: under 1 h
[3]; particularly lung tissue ref 60
  elimination from tissues: slow elimination
HCoV-229E; 12.50 µM (MNTC), BEL-7402 cells, RT-qPCR
  antiviral activity against HCoV-229E: significant antiviral activity
HCoV-229E; Human coronavirus 229E, Bel-7402, read-out: IC50, HCoV-229E replication
  IC50: 3.3 µM
S-RBD
  Kd: 379 µM
  kon: 103 M⁻¹ s⁻¹
SARS-CoV-2-S pseudovirus
  selectivity index (SI), [CC50]/[IC50]: 25.73
  inhibition of attachment of SARS-CoV-2-S pseudovirus to ACE2-expressing HEK293T cells: significantly inhibited
  IC50: 1.38 ± 0.46 µM

## Oc1cc(O)c2cc(O)c(-c3cc(O)c(O)c(O)c3)[o+]c2c1 [Delphinidin]
ACE2
  Kd: 6.64 µM
  kon: 309 M⁻¹ s⁻¹
  koff: 0.00205 s⁻¹
Vero-E6 cells
  cytotoxicity on Vero-E6 cells: no toxicity
[4]
  CC50 at 24 h: > 200 µM
Chymotrypsin C (CTRC)
  inhibition of CTRC: strong inhibitory effect
Cathepsin L (CTSL)
  inhibition of CTSL: strong inhibitory effect
SARS-CoV-2 3CL^pro [5]
  Ki: 0.93 µM
SARS-CoV-2 3CL^pro [5]; IC50, SARS-CoV-2 3CL^pro
  IC50: 1.54 ± 0.38 µM
SARS-CoV-2 3CL^pro [5]; IC50, SARS-CoV-2 3CL^pro (TDI)
  IC50: 4.39 ± 0.53 µM
SARS-CoV-2 3CL^pro [6]
  Kd: 24.5 µM
SARS-CoV-2 3CL^pro [6]; read-out: Ka, SARS-CoV-2 3CL^pro
  kon: 296 M⁻¹ s⁻¹
hACE2-HEK293T cells; screening concentrations 5 µM and 50 µM
  cytotoxicity against hACE2-HEK293T cells: not significantly cytotoxic
[1]
  CC50: > 200 µM
[7]
  bioavailability: low
Cathepsin B (CTSB)
  inhibition of CTSB: did not inhibit
SARS-CoV-2 3CL^pro [2]
  IC50 shift, 3 vs 30 min pre-incubation: 2.85 times
  inhibition mechanism on SARS-CoV-2 3CL^pro: non-competitive inhibitor
S-RBD
  kd, S-RBD: 1.14 × 10^–3 s^−1
  Kd: 2.98 µM
  kon: 383 M⁻¹ s⁻¹
SARS-CoV-2-S pseudovirus
  selectivity index (SI), [CC50]/[IC50]: > 4.41
  inhibition of attachment of SARS-CoV-2-S pseudovirus to ACE2-expressing HEK293T cells: significantly inhibited
  IC50: 45.4 ± 7.09 µM
